Reference: patent publication US10285969B2, “Mangiferin-6-O-berberine salt and preparation method and use thereof” (CHANGZHOU DEZE MEDICAL SCIENCE CO., LTD, priority 2015, dated 2019)

What was measured:
[1] = Physical and chemical properties: solubility in solvents; format: physicochemical
Source text: The chemical structure of the mangiferin-6-O-berberine salt is as follows: […]

[2] = Solubility in the hydrochloric acid solution of pH 1; format: physicochemical
Protocol: (§1) Sample A: Mangiferin-6-O-berberine salt dihydrate
(§2) Sample B: Mangiferin-berberine salt yielded using the method as disclosed in WO2010/145192A1.
2. Instrument: PHS-3C pH meter (Shanghai Kangyi)
Take pure water; add hydrochloric acid to adjust pH to 1 (25° C.±2° C.). Take the water 50 ml to different triangular flask; weigh up accurately 200 mg sample A and sample B which have been ground into powders and put them into the triangular flasks separately, shake and observe dissolved phenomena.
Take the water 50 ml to different triangular flasks; weigh up accurately sample A 400 mg and 600 mg which have been ground into powders and put the powders into the triangular flasks separately, shake and observe dissolving phenomena.

[3] = Stability under a high-humidity environment (moisture absorption weight gain); format: physicochemical
Protocol: as §1, §2
2. Instrument: One ten-thousandth electronic balance (Sartorius, Germany)
Weigh up accurately appropriate amount sample A in 3 glass gardens and sample B in 3 glass gardens separately; put the samples in a drug stability chamber with the condition being set to: 25° C./90% RH±5% RH and storage for 10 days. Weigh the samples accurately on the fifth day and tenth day; record the results of weighing and calculate weight percentage of moisture absorption.

AMPK = assay: Activation of AMPK in L6 cells (Western blot of phospho-AMPK and phospho-ACC); format: cell-based, rat; settings: 1.25-5 μmol/L, 3 hours, dose-dependent
Protocol: The mangiferin-6-O-berberine salt dihydrate yielded using the method as disclosed in the above examples dissolves in DMSO. Before use, the mangiferin-6-O-berberine salt dihydrate is diluted by a culture medium or HBS. The ultimate concentration of DMSO is no more than 0.2%.
The rat L6 cell line is purchased from the ATCC. HG-DMEM is purchased GIBCO™. Fetal bovine serum (FBS) is purchased from Hyclone. Anti-AMPK, anti-ACC, antiphospho-AMPK (Thr172), antiphospho-ACC (ser79) polyclonal antibodies are purchased from Cell Signal Technology.
L6 cells were grown in HG-DMEM containing 10% (v/v) FBS, 100 U/ml penicillin and 100 U/ml streptomycin in a humidified atmosphere of 5% CO2 at 37° C. When the cells covered 60%, the medium was switched to HG-DMEM with 2% FBS and the culture medium was replaced every two days until the cells differentiation reached 90%.
Cells in 6-well plates were starved in serum-free HG-DMEM, and then different concentration gradient samples were added into serum-free HG-DMEM; the concentration of DMSO is 0.2%. The samples incubated for 3 hours in the cells. […]
Samples were electrophoresed on 10% SDS-polyacrylamide gels, and transferred to […] membranes under 100V and 1-2 hours in the transmembrane instrument. Protein in the gel was transferred to nitrocellulose membrane under the state of half dry, and the band was determined by Ponceau S (Ponceau S). […]

[4] = tested on: non-alcoholic fatty liver combined with type 2 diabetes mellitus; assay: Improvement of metabolic disorder indices in patients, oral tablets for six months; format: in vivo, human; settings: after six months, tablets 75 mg two times per day oral
Protocol: The patients according to the criteria of diagnosing non-alcoholic fatty liver combined with type 2 diabetes mellitus oral administrated mangiferin-6-O-berberine salt tablets 75 mg (for the preparation method, reference may be made to Example 6) two times per day.

[5] = Pharmacokinetic comparison after single intragastric administration to SD rats; format: in vivo
Protocol: as §1
Sample B: Mangiferin-berberine salt yielded using the method disclosed in WO2010/145192A1.
A single intragastric administration of sample of A or B was given to SD rats at the dosage of 100 mg/kg and blood was sampled from jugular vein at 0, 0.083, 0.25, 0.5, 1, 1.5, 2, 3, 4, 5, 6, 7, 8, 12 and 24 h.
Preparation of the mangiferin reference solution: Mangiferin reference was weighed accurately and put into a 25 ml volumetric flask; methanol was added to make mangiferin dissolve, diluted to graduation. The mangiferin reference mother liquor is yielded for reserve. An appropriate amount of mangiferin reference mother liquor was taken out accurately and diluted to prepare the mangiferin reference solutions having a concentration of 2, 5, 10, 50, 100, 200 ng/ml.
Preparation of the berberine hydrochloride reference solution: The berberine hydrochloride reference was weighed accurately and put into a 25 ml volumetric flask; methanol was added to make the berberine hydrochloride dissolve, and dilute to graduation. The berberine hydrochloride reference mother liquor was yielded for reserve. An appropriate amount of berberine hydrochloride reference mother liquor was taken out accurately and diluted to prepare reference solution whose berberine concentration is 0.2, 0.5, 2, 10, 20, 50 ng/ml.
Preparation of the internal standard solution: Glibenclamide was weighed accurately and put into a 25 ml volumetric flask; acetonitrile was added to make glibenclamide dissolve, and dilute to graduation. The internal standard solution of glibenclamide was yielded, having a concentration of 50 ng/ml.
Blood sample processing method: Rat blood was put in a heparin anticoagulant centrifuge tube and centrifuged for 10 minutes at 6000 rpm, and the plasma was taken for reserve at −20° C. […]
The pharmacokinetic parameters are calculated with a non compartmental model in Pharsight Phoenix 6.3.

[6] = hydrochloric acid solution of pH 1
[7] = single intragastric 100 mg/kg, 0-24 h, n = 3, mean ± SD

Compound: COc1ccc2cc3[n+](cc2c1OC)CCc1cc2c(cc1-3)OCO2.O=c1c2cc(O)c([O-])cc2oc2cc(O)c([C@@H]3O[C@H](CO)[C@@H](O)[C@H](O)[C@H]3O)c(O)c12 [Mangiferin-6-O-berberine salt]
- solubility in dilute hydrochloric acid ([1]; dilute hydrochloric acid): slightly soluble
- solubility in methanol ([1]; methanol): slightly soluble
- solubility in water ([1]; water): almost insoluble
- solubility relative to the mangiferin-berberine salt disclosed in WO2010/145192A1 [2, 6]: three times
- stability (of the solution) compared with the mangiferin-berberine salt disclosed in WO2010/145192A1 [2, 6]: much better
- solubility in the hydrochloric acid solution of pH 1 ([2]; pH 1, 25° C.±2° C.): 12 mg/ml
- weight percentage of moisture absorption (hygroscopicity) compared with the mangiferin-berberine salt disclosed in WO2010/145192A1 [3]: much smaller
- phosphorylation of ACC (AMPK): enhances significantly
- phosphorylation of AMPK (AMPK): enhances significantly
- ALT ([4]; n = 8, mean ± SD, base line 136.50): 51.85 U/L
- APRI index ([4]; n = 8, base line 0.447): 0.203
- Urine microalbumin (1^+ is seen as 1) ([4]; n = 8, base line 0.60): 0
- TG ([4]; n = 8, base line 3.56): 1.41 mmol/L
- Atherogenic index (AI) ([4]; n = 8, base line 4.12): 3.10
- HbA1C ([4]; n = 8, base line 7.18): 5.80%
- Weight ([4]; n = 8, base line 73.35): 62.34 kg
- AST ([4]; n = 8, base line 83.32): 39.20 U/L
- Diastolic pressure ([4]; n = 8, base line 94.79): 76.39 mmHg
- Systolic pressure ([4]; n = 8, base line 153.77): 125.86 mmHg
- INS ([4]; n = 8, base line 197.99): 56.08 pmol/L
- Liver color Doppler ultrasound ([4]; n = 8, base line fatty liver): normal
- ISI ([4]; n = 8, base line −7.12): −5.80
- AUC relative to that of the mangiferin-berberine salt ([5]; oral administration 100 mg/kg): 2 times
- AUC0-t of Berberine in plasma [5, 7]: 669.72 ± 312.83 ng·h/mL
- AUC0-t of Mangiferin in plasma [5, 7]: 1831.11 ± 510.25 ng·h/mL
